From article PMC13408441, “Molecular regulation and physiological role of GOLPH3-mediated Golgi retention” (Nature Communications, 2026)

How the values were obtained:
[1] = system: GOLPH3; assay: Click-PEG metabolic labeling of GOLPH3 S-acylation; assay type: cell-based, human; details: HeLa, 4 hours
Description: Cells are washed twice with serum-free medium with 1 mg/ml BSA and incubated indicated times with either 100 µM palmitic acid azide or 100uM unlabeled palmitic acid (control). Cells are washed 3 times with cold PBS and lysed in 50 mM Tris-HCl (pH 8.0) and 0.5% SDS. Cell lysates are subjected to click reaction with 5 kDa mPEG-Alkyne, CuSO4, TBTA and ascorbic acid for 1 h at room temperature. Samples are boiled with 4x SDS with BME sample buffer, and analyzed by WB on reducing condition on 4–20% SDS-PAGE gels.

[2] = system: PI4KIIIβ; assay: GOLPH3 Golgi localization upon PtdIns(4)P depletion by PIK93; assay type: cell-based, human; details: 1 h
Description: Immunofluorescence and confocal microscopy
HeLa GOLPH3-KO cells transfected with the different GOLPH3 constructs were plated at approximately 50% confluency post-transfection. Cells were washed with PBS, fixed in 4% paraformaldehyde (PFA) for 20 minutes, washed with PBS, quenched with 50 mM NH4Cl for 10 minutes, and washed again with PBS. Cells were permeabilized with 0.05% saponin in PBS for 5 minutes. Subsequently, cells were washed and blocked with 3% BSA and 0.05% saponin in PBS for 30 minutes. Primary antibodies (anti-GOLPH3 and anti-GM130) and secondary antibodies were diluted in the same buffer. After blocking, coverslips were washed and incubated with primary antibodies overnight at 4 °C, washed in PBS, and incubated for 45 minutes with secondary antibodies. Cells were then washed and stained with Hoechst for nuclear visualization. Finally, coverslips were mounted in Prolong Glass Antifade Mountant.
Images were acquired using a Zeiss LSM 980 Inverted microscope with a 63X objective, a pinhole size of 1 AU and at least 2 line-averaging or alternatively using Oympus Evident FV4000. Super-resolution images were taken using Zeiss LSM980 with Airyscan2 module, with 63×oil-immersion objectives. Images were processed using Fiji (ImageJ). Cis-to-trans Golgi linescans were recorded using the “Color Profiler” plugin (Color_Profiler. jar, https://imagej.nih.gov/ij/plugins/color -profiler.html) in Fiji software. […]
Figure S5. GOLPH3 regulation by S-acylation
A. Immunofluorescence analysis of GOLPH3 Golgi localization upon acute PtdIns(4)P depletion.
GOLPH3-KO HeLa cells expressing CERT-GFP (cyan) or GOLPH3 variants (yellow) were treated with increasing concentrations of PIK93 for 1 h. Golgi localization, assessed by colocalization with GM130 (magenta), is highlighted in the insets. Scale bar, 5 µm. […]

[3] = CD thermal denaturation of GOLPH3 proteins; assay type: physicochemical, human; details: CD at 207 nm, 20 to 95 °C at 1 °C/min, 10 μM protein, 100 mM NaCl, 50 mM Tris pH 7.4, 1 mM TCEP
Description: (§1) Supplemental Material for Theodoropoulou, Nasrallah, et al 2026
Isothermal titration calorimetry
Isothermal titration calorimetry (ITC) experiments were performed on a MicroCal PEAQ-ITC (Malvern Panalytical), with GOLPH3 variants being in a buffer containing 250 mM NaCl, 50 mM Tris pH 8.0 and 1 mM TCEP. LCS peptides were synthesised and delivered as lyophilised powder (Genscript). The peptides were dissolved in the protein buffer and their concentrations were calculated based upon their absorbance at 280 nm and their corresponding molar extinction coefficient. Experiments consisted of titrations of a single 0.4 µL injection followed […]
GOLPH3 proteins at a 100 μM concentration. Experiments were performed at 25 °C in triplicate (n = 3), with injection duration of 4 s, injection spacing of 150 s, stir speed of 750 rpm, and reference power of 7 μcal/s. Data were processed and plotted using MicroCal PEAQ‐ITC Analysis Software and fitted to a one‐site binding model.
(§2) Circular Dichroism Spectroscopy
(§3) Circular Dichroism Spectra of GOLPH3 proteins (at 10 μM in 100 mM NaCl, 50 mM Tris pH 7.4 and 1 mM TCEP) were collected with a Chirascan V100 (AppliedPhotophysics), using a 1 mm path length cuvette, at 20 °C, in the 200-260 nm range. Thermal denaturation experiments […]
(§4) every 1 °C, with a temperature ramp speed of 1 °C/min and an equilibration time of […]

[4] = SEC-MALS of GOLPH3 constructs; assay type: physicochemical, human; details: 12 mg/mL, 250 mM NaCl, 50 mM Tris pH 8.0, 1 mM TCEP
Description: Supplemental Material for Theodoropoulou, Nasrallah, et al 2026 buffer. Pooled fractions were concentrated to the required concentration using a MWCO concentrator (Millipore) with a cutoff of 10 kDa.
Size exclusion chromatography coupled to multi-angle light scattering
The molecular weights of the tested constructs were determined by size exclusion chromatography coupled to multi-angle light scattering (SEC-MALS). The mass measurements were performed on a UltiMate3000 HPLC system equipped with a 3 angles miniDAWN TREOS static light scattering detector (Wyatt Technology). The sample volumes of 5−10 μl at a concentration of 12 mg/mL, were applied to a Superdex 200 5/150 GL column (Cytiva) previously equilibrated with 250 mM NaCl, 50 mM Tris pH 8.0, 1 mM TCEP at a flow rate of 0.08 mL/min. The data were analyzed using the ASTRA 6.1 software package (Wyatt technology), using the absorbance at 280 nm and the theoretical extinction coefficient for concentration measurements.
Nuclear Magnetic Resonance (NMR) Spectroscopy
All proteins used for NMR experiments were designed on the GOLPH3-4G background due to its higher stability and solubility. Recombinant proteins were prepared with the isotope enrichment scheme appropriate for each experiment (i.e. 15N-only or 15N, 13C) in 20 mM MES buffer pH 6.5 with 250 mM NaCl and 10% 2H2O. Lower salt, even by 10%, yielded much degraded spectra. […]

[5] = CD secondary structure of GOLPH3 proteins (BestSel fits); assay type: physicochemical, human; details: 10 μM, 100 mM NaCl, 50 mM Tris pH 7.4, 1 mM TCEP, 20 °C
Description: as §1
Isothermal titration calorimetry […]
as §2, §3, §4
Table S2: Fits of CD spectra to fractions of secondary structure for Golph3 WT and various mutants of it, carried out with the BestSel server

COc1ccc(N2CCN(C(=O)c3cc4c(s3)-c3ccccc3S(=O)(=O)C4)CC2)cc1 [ML349]
click-PEG signal upon ML348/ML349 ([1]; 10 µM): increased the click-PEG signal

CC(=O)Nc1nc(C)c(-c2ccc(Cl)c(S(=O)(=O)NCCO)c2)s1 [PIK93]
effect of PIK93 on localization of CERT ([2]; CERT-GFP, HeLa): completely relocate CERT to the cytosol
effect of PIK93 on Golgi localization of GOLPH3-C84A ([2]; GOLPH3-KO HeLa expressing C84A): sensitive to PIK93
effect of PIK93 on Golgi localization of GOLPH3 WT ([2]; GOLPH3-KO HeLa expressing GOLPH3 WT, increasing PIK93 concentrations, versus CERT): significantly more resistant to PtdIns(4)P depletion
effect of PIK93 on Golgi localization of GOLPH3-R90L ([2]; GOLPH3-KO HeLa expressing R90L): insensitive to PIK93
effect of PIK93 on Golgi localization of GOLPH3 mutated at Cys108 and Cys122 ([2]; GOLPH3-KO HeLa): strongly Golgi-associated, PIK93-insensitive form

CCCCCCCCCC[C@@H]1C(=O)O[C@H]1CCc1ccc(OC)c(OC)c1 [Palmostatin B]
click-PEG signal upon Palmostatin B ([1]; 50 µM): increased the click-PEG signal

GOLPH3 WT: recombinant human GOLPH3 (Q9H4A6, residues 52-298)
Tm / melting temperature [3]: 52.5 °C
oligomeric state [4]: monomeric
% alpha [5]: 41%
% beta parallel [5]: 0%
% beta-antiparallel [5]: 7%
% others [5]: 36%
% turn [5]: 16%
